Source: ChEMBL document CHEMBL3885881, “DrugMatrix”

Organism: Rattus norvegicus
Experiment: DrugMatrix - Regimen: Daily Repeat
Type: toxicity, organism-based, Sprague-Dawley
Design: regimen Daily Repeat, gender Male, age 6-8 weeks
Settings: in vivo, sc, route subcutaneous, […]; for ABSOLUTE BASOPHIL / ABSOLUTE EOSINOPHIL / ABSOLUTE LYMPHOCYTE / ABSOLUTE MONOCYTE / ABSOLUTE SEGMENTED NEUTROPHIL / BASOPHIL / EOSINOPHIL / ERYTHROCYTE COUNT / HEMATOCRIT / HEMOGLOBIN / LEUKOCYTE COUNT / LYMPHOCYTE / MEAN CORPUSCULAR HEMOGLOBIN / MEAN CORPUSCULAR HEMOGLOBIN CONCENTRATION / MEAN CORPUSCULAR VOLUME / MONOCYTE / NEUTROPHIL / NUCLEATED RED BLOOD CELLS / PLATELET COUNT: tissue Blood; for ALANINE AMINOTRANSFERASE / ALBUMIN / ALKALINE PHOSPHATASE / ASPARTATE AMINOTRANSFERASE / BLOOD UREA NITROGEN / CARBON DIOXIDE / CHLORIDE / CHOLESTEROL / CREATINE PHOSPHOKINASE / CREATININE / GLUCOSE / LACTATE DEHYDROGENASE / LIPASE / PHOSPHORUS / POTASSIUM / SODIUM / TOTAL BILIRUBIN / TOTAL PROTEIN / URIC ACID: tissue Plasma
[1] = 15 mg/kg, 72 h, dose level Low, time 3 day
[2] = 15 mg/kg, 120 h, dose level Low, time 5 day
[3] = 750 mg/kg, 72 h, dose level High, time 3 day
[4] = 750 mg/kg, 120 h, dose level High, time 5 day

## CC=CC(=O)N(CC)c1ccccc1C
[1]
  ABSOLUTE BASOPHIL: 0 CELLS/uL
  ABSOLUTE EOSINOPHIL: 112 CELLS/uL
  ABSOLUTE LYMPHOCYTE: 10089.67 CELLS/uL
  ABSOLUTE MONOCYTE: 82.33 CELLS/uL
  ABSOLUTE SEGMENTED NEUTROPHIL: 1549.33 CELLS/uL
  BASOPHIL: 0%
  EOSINOPHIL: 1%
  ERYTHROCYTE COUNT: 5.39 x10E6/uL
  HEMATOCRIT: 34.37%
  HEMOGLOBIN: 13.8 G/DL
  LEUKOCYTE COUNT: 11.83 x10E3/uL
  LYMPHOCYTE: 86.33%
  MEAN CORPUSCULAR HEMOGLOBIN: 25.63 pg
  MEAN CORPUSCULAR HEMOGLOBIN CONCENTRATION: 40.2 G/DL
  MEAN CORPUSCULAR VOLUME: 63.7 fL
  MONOCYTE: 0.67%
  NEUTROPHIL: 12%
  NUCLEATED RED BLOOD CELLS: 0.33 /100WBC
  PLATELET COUNT: 1164.67 x10E3/uL
  ALANINE AMINOTRANSFERASE: 60.33 u/L
  ALBUMIN: 4.3 G/DL
  ALKALINE PHOSPHATASE: 309.33 u/L
  ASPARTATE AMINOTRANSFERASE: 90 u/L
  BLOOD UREA NITROGEN: 14.33 mg/dL
  CARBON DIOXIDE: 25.33 mmol/L
  CHLORIDE: 102 MEQ/L
  CHOLESTEROL: 88 mg/dL
  CREATINE PHOSPHOKINASE: 214.67 u/L
  CREATININE: 0.15 mg/dL
  GLUCOSE: 154.33 mg/dL
  LACTATE DEHYDROGENASE: 252.33 u/L
  LIPASE: 9 u/L
  PHOSPHORUS: 13.47 mg/dL
  POTASSIUM: 6.79 MEQ/L
  SODIUM: 146.9 MEQ/L
  TOTAL BILIRUBIN: 0.2 mg/dL
  TOTAL PROTEIN: 6 G/DL
  URIC ACID: 1.6 mg/dL
[2]
  ABSOLUTE BASOPHIL: 0 CELLS/uL
  ABSOLUTE EOSINOPHIL: 0 CELLS/uL
  ABSOLUTE LYMPHOCYTE: 9506.33 CELLS/uL
  ABSOLUTE MONOCYTE: 133 CELLS/uL
  ABSOLUTE SEGMENTED NEUTROPHIL: 1294 CELLS/uL
  BASOPHIL: 0%
  EOSINOPHIL: 0%
  ERYTHROCYTE COUNT: 5.45 x10E6/uL
  HEMATOCRIT: 35.03%
  HEMOGLOBIN: 13.53 G/DL
  LEUKOCYTE COUNT: 10.93 x10E3/uL
  LYMPHOCYTE: 87%
  MEAN CORPUSCULAR HEMOGLOBIN: 24.9 pg
  MEAN CORPUSCULAR HEMOGLOBIN CONCENTRATION: 38.67 G/DL
  MEAN CORPUSCULAR VOLUME: 64.33 fL
  MONOCYTE: 1.33%
  NEUTROPHIL: 11.67%
  NUCLEATED RED BLOOD CELLS: 2 /100WBC
  PLATELET COUNT: 1237.33 x10E3/uL
  ALANINE AMINOTRANSFERASE: 56 u/L
  ALBUMIN: 4.23 G/DL
  ALKALINE PHOSPHATASE: 398.67 u/L
  ASPARTATE AMINOTRANSFERASE: 78 u/L
  BLOOD UREA NITROGEN: 15 mg/dL
  CARBON DIOXIDE: 27 mmol/L
  CHLORIDE: 102.33 MEQ/L
  CHOLESTEROL: 73.67 mg/dL
  CREATINE PHOSPHOKINASE: 195.33 u/L
  CREATININE: 0.19 mg/dL
  GLUCOSE: 148.33 mg/dL
  LACTATE DEHYDROGENASE: 106 u/L
  LIPASE: 8.33 u/L
  PHOSPHORUS: 12.73 mg/dL
  POTASSIUM: 6.57 MEQ/L
  SODIUM: 147 MEQ/L
  TOTAL BILIRUBIN: 0.2 mg/dL
  TOTAL PROTEIN: 6.1 G/DL
  URIC ACID: 1.2 mg/dL
[3]
  ABSOLUTE BASOPHIL: 0 CELLS/uL
  ABSOLUTE EOSINOPHIL: 39 CELLS/uL
  ABSOLUTE LYMPHOCYTE: 11981 CELLS/uL
  ABSOLUTE MONOCYTE: 301 CELLS/uL
  ABSOLUTE SEGMENTED NEUTROPHIL: 1579 CELLS/uL
  BASOPHIL: 0%
  EOSINOPHIL: 0.33%
  ERYTHROCYTE COUNT: 5.38 x10E6/uL
  HEMATOCRIT: 34.23%
  HEMOGLOBIN: 13.3 G/DL
  LEUKOCYTE COUNT: 13.9 x10E3/uL
  LYMPHOCYTE: 85.67%
  MEAN CORPUSCULAR HEMOGLOBIN: 24.7 pg
  MEAN CORPUSCULAR HEMOGLOBIN CONCENTRATION: 38.83 G/DL
  MEAN CORPUSCULAR VOLUME: 63.7 fL
  MONOCYTE: 2.33%
  NEUTROPHIL: 11.67%
  NUCLEATED RED BLOOD CELLS: 1 /100WBC
  PLATELET COUNT: 1269.67 x10E3/uL
  ALANINE AMINOTRANSFERASE: 53.33 u/L
  ALBUMIN: 3.63 G/DL
  ALKALINE PHOSPHATASE: 412 u/L
  ASPARTATE AMINOTRANSFERASE: 76.33 u/L
  BLOOD UREA NITROGEN: 14.33 mg/dL
  CARBON DIOXIDE: 26 mmol/L
  CHLORIDE: 101.33 MEQ/L
  CHOLESTEROL: 93 mg/dL
  CREATINE PHOSPHOKINASE: 193.67 u/L
  CREATININE: 0.18 mg/dL
  GLUCOSE: 142.67 mg/dL
  LACTATE DEHYDROGENASE: 154 u/L
  LIPASE: 10.67 u/L
  PHOSPHORUS: 12.17 mg/dL
  POTASSIUM: 6.36 MEQ/L
  SODIUM: 144.1 MEQ/L
  TOTAL BILIRUBIN: 0.17 mg/dL
  TOTAL PROTEIN: 5.57 G/DL
  URIC ACID: 1.23 mg/dL
[4]
  ABSOLUTE BASOPHIL: 0 CELLS/uL
  ABSOLUTE EOSINOPHIL: 100.67 CELLS/uL
  ABSOLUTE LYMPHOCYTE: 12538 CELLS/uL
  ABSOLUTE MONOCYTE: 97.33 CELLS/uL
  ABSOLUTE SEGMENTED NEUTROPHIL: 1764 CELLS/uL
  BASOPHIL: 0%
  EOSINOPHIL: 0.67%
  ERYTHROCYTE COUNT: 4.84 x10E6/uL
  HEMATOCRIT: 29.03%
  HEMOGLOBIN: 11.63 G/DL
  LEUKOCYTE COUNT: 14.5 x10E3/uL
  LYMPHOCYTE: 86.67%
  MEAN CORPUSCULAR HEMOGLOBIN: 24.07 pg
  MEAN CORPUSCULAR HEMOGLOBIN CONCENTRATION: 40.13 G/DL
  MEAN CORPUSCULAR VOLUME: 60.03 fL
  MONOCYTE: 0.67%
  NEUTROPHIL: 12%
  NUCLEATED RED BLOOD CELLS: 0 /100WBC
  PLATELET COUNT: 1313.67 x10E3/uL
  ALANINE AMINOTRANSFERASE: 73.67 u/L
  ALBUMIN: 3.63 G/DL
  ALKALINE PHOSPHATASE: 318 u/L
  ASPARTATE AMINOTRANSFERASE: 113.67 u/L
  BLOOD UREA NITROGEN: 18 mg/dL
  CARBON DIOXIDE: 29.33 mmol/L
  CHLORIDE: 98.67 MEQ/L
  CHOLESTEROL: 97.33 mg/dL
  CREATINE PHOSPHOKINASE: 403.33 u/L
  CREATININE: 0.19 mg/dL
  GLUCOSE: 144 mg/dL
  LACTATE DEHYDROGENASE: 612.33 u/L
  LIPASE: 10.67 u/L
  PHOSPHORUS: 13.33 mg/dL
  POTASSIUM: 5 MEQ/L
  SODIUM: 136.53 MEQ/L
  TOTAL BILIRUBIN: 0.1 mg/dL
  TOTAL PROTEIN: 5.57 G/DL
  URIC ACID: 1.7 mg/dL
